Values of other authors as cited in paper PMC9947563, “Identification of the molecular determinants of antagonist potency in the allosteric binding pocket of human P2X4” (Frontiers in Pharmacology, 2023).
Read-outs that look alike come from different tables or passages of the source.

Tests used:
hP2X4 = settings: cited from earlier work
P2X1 = test system: P2X1; design: method as in Tian M. et al., 2020; settings: ref Tian M. et al., 2020; cited from earlier work
P2X7 = test system: P2X7; design: method as in Tian M. et al., 2020; settings: ref Tian M. et al., 2020; cited from earlier work

In the case of O=C(Nc1cc(C(F)(F)F)cc(C(F)(F)F)c1)c1cccc(Cl)c1O [Tian-13], the IC50 (hP2X4; ref Tian M. et al., 2020, read-out: P2X4 IC50) is given as 0.0488 ± 0.011 µM, the IC50 (hP2X4; ref Tian et al. (2020), read-out: hP2X4 IC50) is given as 0.049 µM and the IC50 (P2X1) is given as 0.058 ± 0.0219 µM. For the same compound, the IC50 (P2X7) was 0.177 ± 0.011 µM.
